Measured values published in ChEMBL document CHEMBL2150860, “Herbarone, a rearranged heptaketide derivative from the sea hare associated fungus Torula herbarum” (J Nat Prod, 2012).

What was measured:
Type in all cases: functional, cell-based
[1] = system: LoVo; assay: Cytotoxicity against human LoVo cells by MTT colorimetric method
[2] = system: MG-63; assay: Cytotoxicity against human MG63 cells by MTT colorimetric method
[3] = system: A549; assay: Cytotoxicity against human A549 cells by MTT colorimetric method

| SMILES | IC50 [1] [µM] | IC50 [2] [µM] | IC50 [3] [µM] |
| --- | --- | --- | --- |
| COc1cc(OC)c2c(c1)C(=O)[C@@H]1C[C@@H](O)C[C@@]2(O)[C@@H]1CO | > 97.4 | > 97.4 | > 97.4 |
| COc1cccc2c1C(=O)c1c(O)c3c(c(O)c1C2=O)C[C@@](O)(C(=O)CO)C[C@@H]3O[C@H]1C[C@H](N)[C@H](O)[C@H](C)O1 [DOXORUBICIN] | 2.7 | 2.7 | – |
